# Data as given in patent US20250066369A1, “BICYCLIC PHTHALAZIN-1(2H)-ONE DERIVATIVES AND RELATED USES” (NodThera Limited, priority 2022, published 2025).
# Test system: IL-1β release upon NLRP3 activation in peripheral blood mononuclear cells (PBMC)
# Test: PBMC IC50 determination assay: inhibition of IL-1β release upon NLRP3 activation
# Assay type: cell-based
# Settings: PBMC, PBMC primed with LPS 3 h, compound 30 min, stimulated with ATP (5 mM) or nigericin (10 μM) 1 h; IL-1β by ELISA (Protocol A) or HTRF (Protocol B)
# Outline: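 Human PBMC from buffy coats were primed 3 h with LPS (1 μg/mL in Protocol B), given compound for 30 min, then stimulated 1 h with ATP (5 mM) or nigericin (10 μM; Protocol A only). Released IL-1β was quantified by ELISA at 450 nm (Protocol A) or HTRF at […] (Protocol B).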
row,Structure (SMILES),IC50 [nM]
1,"COc1cc2c(=O)n(CC(=O)Nc3ncccn3)nc(C(C)C)c2o1 [Compound 108, 2-[2-Methoxy-4-oxo-7-(propan-2-yl)-4H,5H-furo[2,3-d]pyridazin-5-yl]-N-(pyrimidin-2-yl)acetamide]",3000 to 10000
2,"[2H]C([2H])([2H])Nc1cc2c(C(C)C)nn(CC(=O)Nc3ncccn3)c(=O)c2s1 [Compound 109, 2-{2-Trideuteromethylamino-7-oxo-4-(propan-2-yl)-6H,7H-thieno[2,3-d]pyridazin-6-yl}-N-(pyrimidin-2-yl)acetamide]",≤ 100
3,"CCNc1cc2c(C(C)C)nn(C3(C(=O)Nc4ncccn4)CC3)c(=O)c2s1 [Compound 110, 1-[2-(Ethylamino)-7-oxo-4-(propan-2-yl)-6H,7H-thieno[2,3-d]pyridazin-6-yl]-N-(pyrimidin-2-yl)cyclopropane-1-carboxamide]",3000 to 10000
4,"CNc1cc2c(=O)n(CC(=O)Nc3ncccn3)nc(C(C)C)c2o1 [Compound 111, 2-[2-(Methylamino)-4-oxo-7-(propan-2-yl)-4H,5H-furo[2,3-d]pyridazin-5-yl]-N-(pyrimidin-2-yl)acetamide]",100 to 1000
5,"CNc1cc2c(C3CC3)nn(CC(=O)Nc3ncccn3)c(=O)c2s1 [Compound 112, 2-[4-Cyclopropyl-2-(methylamino)-7-oxo-6H,7H-thieno[2,3-d]pyridazin-6-yl]-N-(pyrimidin-2-yl)acetamide]",100 to 1000
6,"CNc1cc2c(C(C)C)nn(C3(C(=O)Nc4ncccn4)CC3)c(=O)c2s1 [Compound 113, 1-[2-(Methylamino)-7-oxo-4-(propan-2-yl)-6H,7H-thieno[2,3-d]pyridazin-6-yl]-N-(pyrimidin-2-yl)cyclopropane-1-carboxamide]",10000 to 50000
7,"CCc1nn(CC(=O)Nc2ncccn2)c(=O)c2sc(NC)cc12 [Compound 114, 2-[4-ethyl-2-(methylamino)-7-oxo-6H,7H-thieno[2,3-d]pyridazin-6-yl]-N-(pyrimidin-2-yl)acetamide]",100 to 1000
8,"CCc1nn(CC(=O)Nc2ncco2)c(=O)c2sc(NC)cc12 [Compound 115, 2-[4-Ethyl-2-(methylamino)-7-oxo-6H,7H-thieno[2,3-d]pyridazin-6-yl]-N-(1,3-oxazol-2-yl)acetamide]",100 to 1000
9,CCc1nn(CC(=O)Nc2ncccn2)c(=O)c2sc(C)cc12 [Compound 116],1000 to 3000
10,"Cc1cc2c(C)nn(CC(=O)Nc3ncccn3)c(=O)c2s1 [Compound 117, 2-{2,4-Dimethyl-7-oxo-6H,7H-thieno[2,3-d]pyridazin-6-yl}-N-(pyrimidin-2-yl)acetamide]",1000 to 3000
11,"CNc1cc2c(C)nn(CC(=O)Nc3ncccn3)c(=O)c2s1 [Compound 118, 2-[4-methyl-2-(methylamino)-7-oxo-6H,7H-thieno[2,3-d]pyridazin-6-yl]-N-(pyrimidin-2-yl)acetamide]",1000 to 3000
12,"CNc1cc2c(C)nn(CC(=O)Nc3ncco3)c(=O)c2s1 [Compound 119, 2-[4-Methyl-2-(methylamino)-7-oxo-6H,7H-thieno[2,3-d]pyridazin-6-yl]-N-(1,3-oxazol-2-yl)acetamide]",1000 to 3000
13,"CC(C)c1nn(CC(=O)Nc2ncccn2)c(=O)c2sc(CN)cc12 [Compound 120, 2-[2-(Aminomethyl)-7-oxo-4-(propan-2-yl)-6H,7H-thieno[2,3-d]pyridazin-6-yl]-N-(pyrimidin-2-yl)acetamide]",10000 to 50000
